Legend:
Assay type in all cases: in vivo
[1] = tested on: barnyardgrass (Echinochloa crus-galli); experiment: Test G Pre-Emergence Protocol; details: Echinochloa crus-galli, pre-emergence, 312 h, evaluated after 13 days
Outline: (§1)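 Scores are visual damage ratings from 0 (no damage) to 100 (total plant kill), taken 13 days after treatment. Compound was sprayed one day post-sowing at 15.625, 62.5 or 250 g/ha in 50:50 acetone/water with 0.5% Tween 20.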

[2] = tested on: ivy-leaved morning glory (Ipomoea hederacea); experiment: Test G Pre-Emergence Protocol; details: evaluated after 13 days
Outline: as §1

[3] = tested on: redroot pigweed (Amaranthus retroflexus); experiment: Test G Pre-Emergence Protocol; details: evaluated after 13 days
Outline: as §1

[4] = tested on: velvetleaf (Abutilon theophrasti); experiment: Test G Pre-Emergence Protocol; details: evaluated after 13 days
Outline: as §1

[5] = tested on: giant foxtail (Setaria faberi); experiment: Test G Pre-Emergence Protocol; details: Setaria faberi, pre-emergence, 312 h, evaluated after 13 days
Outline: as §1

[6] = tested on: corn (Zea mays); experiment: Test G Pre-Emergence Protocol; details: evaluated after 13 days
Outline: as §1

[7] = tested on: barnyardgrass (Echinochloa crus-galli); experiment: Test G Post-Emergence Protocol; details: Echinochloa crus-galli, post-emergence, 312 h, read-out: Barnyardgrass damage rating
Outline: (§2)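 Foliar application was made 8 days after sowing, using an aqueous spray of the active in acetone/water (50:50) with 0.5% Tween 20, at doses of 15.625, 62.5 or 250 g/ha. Injury was assessed 13 days later, where 100 meant the plant was fully damaged.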

[8] = tested on: ivy-leaved morning glory (Ipomoea hederacea); experiment: Test G Post-Emergence Protocol; details: Ipomoea, post-emergence, 312 h, read-out: Morningglory, Ivy-leaved damage rating
Outline: as §2

[9] = tested on: redroot pigweed (Amaranthus retroflexus); experiment: Test G Post-Emergence Protocol; details: Amaranthus retroflexus, post-emergence, 312 h, read-out: Pigweed, Redroot damage rating
Outline: as §2

[10] = tested on: velvetleaf (Abutilon theophrasti); experiment: Test G Post-Emergence Protocol; details: Abutilon theophrasti, post-emergence, 312 h, read-out: Velvetleaf damage rating
Outline: as §2

[11] = tested on: giant foxtail (Setaria faberi); experiment: Test G Post-Emergence Protocol; details: Setaria faberi, post-emergence, 312 h, read-out: Foxtail, Giant damage rating
Outline: as §2

[12] = tested on: corn (Zea mays); experiment: Test G Post-Emergence Protocol; details: Zea mays, post-emergence, 312 h, read-out: Corn damage rating
Outline: as §2

[13] = 15.625 g ai/ha, evaluated after 13 days (100=total damage to plant; 0=no damage to plant)
[14] = 62.5 g ai/ha, evaluated after 13 days, 100=total damage to plant, 0=no damage to plant
[15] = 250 g ai/ha, evaluated after 13 days, 100=total damage to plant, 0=no damage to plant

**Q.** `COc1c(Cl)ccc([C@H]2CN(C)C(=O)[C@@H]2C(=O)Nc2cccc(F)c2F)c1F` [Compound 1773] was tested. Which pest or weed control at 15.625 g/ha ([1]; 15.625 g ai/ha, read-out: Barnyardgrass damage rating (100=total damage to plant; 0=no damage to plant)) did it give?
**A.** 90%

**Q.** What about the pest or weed control at 62.5 g/ha ([1]; 62.5 g ai/ha, 100=total damage to plant, 0=no damage to plant, read-out: Barnyardgrass damage rating) of the same compound?
**A.** 90%

**Q.** What about the pest or weed control at 250 g/ha ([1]; 250 g ai/ha, read-out: Barnyardgrass damage rating (100=total damage to plant; 0=no damage to plant)) of the same compound?
**A.** 90%

**Q.** What about the “Morningglory, Ivy-leaved damage rating (100=total damage to plant; 0=no damage to plant)” value ([2]; 250 g ai/ha) of the same compound?
**A.** 80

**Q.** What about the pest or weed control at 15.625 g/ha ([2]; Ipomoea, pre-emergence, 312 h, 15.625 g ai/ha, read-out: Morningglory, Ivy-leaved damage rating (100=total damage to plant; 0=no damage to plant)) of the same compound?
**A.** 0%

**Q.** And the pest or weed control at 62.5 g/ha ([2]; Ipomoea, pre-emergence, 312 h, 62.5 g ai/ha, 100=total damage to plant, 0=no damage to plant, read-out: Morningglory, Ivy-leaved damage rating)?
**A.** 60%

**Q.** And the “Pigweed, Redroot damage rating (100=total damage to plant; 0=no damage to plant)” value ([3]; 15.625 g ai/ha)?
**A.** 20

**Q.** And the “Pigweed, Redroot damage rating (100=total damage to plant; 0=no damage to plant)” value ([3]; 250 g ai/ha)?
**A.** 70

**Q.** And the pest or weed control at 62.5 g/ha ([3]; Amaranthus retroflexus, pre-emergence, 312 h, 62.5 g ai/ha, 100=total damage to plant, 0=no damage to plant, read-out: Pigweed, Redroot damage rating)?
**A.** 20%

**Q.** What about the “Velvetleaf damage rating (100=total damage to plant; 0=no damage to plant)” value ([4]; 15.625 g ai/ha) of the same compound?
**A.** 10

**Q.** What about the “Velvetleaf damage rating (100=total damage to plant; 0=no damage to plant)” value ([4]; 250 g ai/ha) of the same compound?
**A.** 60

**Q.** What about the pest or weed control at 62.5 g/ha ([4]; Abutilon theophrasti, pre-emergence, 312 h, 62.5 g ai/ha, 100=total damage to plant, 0=no damage to plant, read-out: Velvetleaf damage rating) of the same compound?
**A.** 30%

**Q.** And the pest or weed control at 15.625 g/ha ([5]; 15.625 g ai/ha, read-out: Foxtail, Giant damage rating (100=total damage to plant; 0=no damage to plant))?
**A.** 90%

**Q.** And the pest or weed control at 62.5 g/ha ([5]; 62.5 g ai/ha, 100=total damage to plant, 0=no damage to plant, read-out: Foxtail, Giant damage rating)?
**A.** 90%

**Q.** And the pest or weed control at 250 g/ha ([5]; 250 g ai/ha, read-out: Foxtail, Giant damage rating (100=total damage to plant; 0=no damage to plant))?
**A.** 90%

**Q.** And the “Corn damage rating (100=total damage to plant; 0=no damage to plant)” value ([6]; 15.625 g ai/ha)?
**A.** 70

**Q.** And the “Corn damage rating (100=total damage to plant; 0=no damage to plant)” value ([6]; 250 g ai/ha)?
**A.** 80

**Q.** And the plant injury at 62.5 g/ha ([6]; Zea mays, pre-emergence, 312 h, 62.5 g ai/ha, 100=total damage to plant, 0=no damage to plant, read-out: Corn damage rating)?
**A.** 80%

**Q.** What about the pest or weed control at 15.625 g/ha [7, 13] of the same compound?
**A.** 80%

**Q.** And the pest or weed control at 62.5 g/ha [7, 14]?
**A.** 80%

**Q.** What about the pest or weed control at 250 g/ha [7, 15] of the same compound?
**A.** 80%

**Q.** And the pest or weed control at 15.625 g/ha [8, 13]?
**A.** 20%

**Q.** And the pest or weed control at 62.5 g/ha [8, 14]?
**A.** 10%

**Q.** What about the pest or weed control at 250 g/ha [8, 15] of the same compound?
**A.** 60%

**Q.** What about the pest or weed control at 15.625 g/ha [9, 13] of the same compound?
**A.** 20%

**Q.** What about the pest or weed control at 62.5 g/ha [9, 14] of the same compound?
**A.** 20%

**Q.** And the pest or weed control at 250 g/ha [9, 15]?
**A.** 40%

**Q.** What about the pest or weed control at 15.625 g/ha [10, 13] of the same compound?
**A.** 0%

**Q.** And the pest or weed control at 62.5 g/ha [10, 14]?
**A.** 20%

**Q.** And the pest or weed control at 250 g/ha [10, 15]?
**A.** 40%

**Q.** And the pest or weed control at 15.625 g/ha [11, 13]?
**A.** 80%

**Q.** What about the pest or weed control at 62.5 g/ha [11, 14] of the same compound?
**A.** 80%

**Q.** And the pest or weed control at 250 g/ha [11, 15]?
**A.** 80%

**Q.** What about the plant injury at 15.625 g/ha [12, 13] of the same compound?
**A.** 70%

**Q.** What about the plant injury at 62.5 g/ha [12, 14] of the same compound?
**A.** 80%

**Q.** And the plant injury at 250 g/ha [12, 15]?
**A.** 80%

Source: patent US12077503B2, “Substituted cyclic amides and their use as herbicides” (FMC CORPORATION, priority 2015, dated 2024)
